Like-named read-outs stand apart in the source and are kept apart here. Non-standard residues stand in square brackets, D forms with d. Residues, ends and D or L forms follow the SMILES beside them.
Key:
[1] = biological target: HIV-1 TAR RNA; type: binding; conditions: EMSA, positional scanning library, Table S1
Method: (§1) Electro Mobility Shift Assays (EMSA) and 2-aminopurine fluorescence ([35]) were used to measure peptide binding. For EMSA, all RNAs were 5′-dephosphorylated ([25],[26]) and 5′-rephosphorylated using T4 Polynucleotide Kinase (PNK); shifts were performed and analyzed as previously described ([14]). The P-TEFb/Tat1:57/AFF4 binding assays were run as described ([11]), with protein samples generously donated by Drs Ursula Schulze-Gahmen and James Hurley, but binding buffers contained 250× fold excess yeast tRNA. JB181-bound samples were prepared with 3× excess labeled HIV-TAR prior to titration with the pre-formed P-TEFb/Tat1:57/AFF4 complex.
(§2) Fig. S1. a) HIV-1 TAR, BIV TAR and 7SK-SL4 RNAs have similar secondary structures, but the JB181 peptide discriminates between them. […]
(§3) tightly than BIV TAR (3.3 nM) or 7SK (>3 μM) RNAs. b) EMSA of representative JB-peptides with 32P radiolabeled HIV-1 TAR RNA ([RNA]=75pM). The peptide concentration increases from left to right, as indicated. The dissociation constant can be estimated by the peptide concentration where there is an approximate 1:1 ratio (as established by visual inspection) between free RNA and complex, since the RNA concentration is much lower than the KD.
(§4) (1 picture or pasted object on this page, not shown here)

[2] = biological target: BIV TAR RNA; assay: EMSA binding to BIV TAR; conditions: positional scanning library, Table S1
Method: as §1, §2, §3, §4

How did the Kd ([1]; with tRNA, read-out: Kd (nM) w/tRNA) turn out when `CC[C@H](C)[C@@H]1NC(=O)[C@H](CCCNC(=N)N)NC(=O)[C@H](CCCNC(=N)N)NC(=O)CNC(=O)[C@H](CCCCN)NC(=O)[C@H](CCCNC(=N)N)NC(=O)[C@H]([C@@H](C)O)NC(=O)[C@H](CCCNC(=N)N)NC(=O)[C@H](C(C)C)NC(=O)[C@H](CCCNC(=N)N)NC(=O)[C@@H]2CCCN2C(=O)[C@H]2CCCN2C(=O)[C@H](CC(C)C)NC(=O)[C@H](CCCNC(=N)N)NC1=O` [JB-85] (cyclo(RVRTRKGRRIRL[dP]P)) was run?
Its Kd is 50 nM.

What about the Kd ([1]; without tRNA, read-out: Kd (nM) no tRNA) of the same molecule?
The Kd was 5 nM.

And the Kd [2]?
The Kd was 1 nM.

— PMC6379670, “An ultra-high affinity ligand of HIV-1 TAR reveals the RNA structure recognized by P-TEFb” (Nucleic Acids Research, 2018)
